US20020035061A1, “COMPOSITIONS AND METHODS FOR TREATING INFECTIONS USING CATIONIC PEPTIDES ALONE OR IN COMBINATION WITH ANTIBIOTICS” (priority 1996, published 2002)
Converted amounts (≈) assume the structure as drawn. Where two headings read alike, the source gives them in different places.

Key:
[1] = tested on: microorganisms with acquired resistance; assay: microbe, parasite or virus in culture; type: cell-based
[2] = tested on: inherently resistant microorganisms; assay: microbe, parasite or virus in culture; type: cell-based
[3] = Staphylococcus aureus, read-out: MIC alone (antibiotic agent), S. aureus

Compound: CC1(C)S[C@@H]2[C@H](NC(=O)[C@H](N)c3ccccc3)C(=O)N2[C@H]1C(=O)O [Ampicillin]
- MIC comb. (antibiotic agent) ([1]; S. aureus, with MBI 26): 0.25 µg/mL (≈ 0.715 µM)
- MIC comb. (antibiotic agent) ([1]; S. haemolyticus, with MBI 26): 0.25 µg/mL (≈ 0.715 µM)
- MIC [1, 3]: 2 µg/mL (≈ 5.72 µM)

Compound: CC(C)(O/N=C(\C(=O)N[C@@H]1C(=O)N2C(C(=O)[O-])=C(C[n+]3ccccc3)CS[C@H]12)c1csc(N)n1)C(=O)O [Ceftazidime]
- MIC comb. (antibiotic agent) ([1]; A. calcoaceticus, with MBI 26): 2 µg/mL (≈ 3.66 µM)
- MIC comb. (antibiotic agent) ([1]; A. calcoaceticus, with MBI 29): 2 µg/mL (≈ 3.66 µM)
- MIC ([1]; Acinetobacter calcoaceticus, read-out: MIC alone (antibiotic agent), A. calcoaceticus): 32 µg/mL (≈ 58.5 µM)
- MIC comb. (antibiotic agent) ([1]; P. aeruginosa, with MBI 29): 16 µg/mL (≈ 29.3 µM)
- MIC ([1]; Pseudomonas aeruginosa, read-out: MIC alone (antibiotic agent), P. aeruginosa): 64 µg/mL (≈ 117 µM)

Compound: CC[C@H]1OC(=O)[C@H](C)[C@@H](O[C@H]2C[C@@](C)(OC)[C@@H](O)[C@H](C)O2)[C@H](C)[C@@H](O[C@@H]2O[C@H](C)C[C@H](N(C)C)[C@H]2O)[C@](C)(O)C[C@@H](C)C(=O)[C@H](C)[C@@H](O)[C@]1(C)O [Erythromycin]
- MIC [1, 3]: 8 µg/mL (≈ 10.9 µM)
- MIC ([1]; Staphylococcus epidermidis, read-out: MIC alone (antibiotic agent), S. epidermidis): 8 µg/mL (≈ 10.9 µM)
- MIC ([1]; Staphylococcus haemolyticus, read-out: MIC alone (antibiotic agent), S. haemolyticus): 8 µg/mL (≈ 10.9 µM)
- MIC ([2]; Acinetobacter calcoaceticus, read-out: Erythromycin MIC + MBI 26, A. calcoaceticus AC001): 1 µg/mL
- MIC ([2]; Klebsiella pneumoniae, read-out: Erythromycin MIC + MBI 26, K. pneumoniae KP001): 0.25 µg/mL
- MIC ([2]; Klebsiella pneumoniae, read-out: Erythromycin MIC + MBI 26, K. pneumoniae KP002): 0.5 µg/mL
- MIC ([2]; Klebsiella pneumoniae, read-out: Erythromycin MIC Alone, K. pneumoniae KP002): 256 µg/mL (≈ 349 µM)
- MIC ([2]; Pseudomonas aeruginosa, read-out: Erythromycin MIC + MBI 26, P. aeruginosa PA041): 4 µg/mL
- MIC ([2]; Pseudomonas aeruginosa, read-out: Erythromycin MIC Alone, P. aeruginosa PA041): 128 µg/mL (≈ 174 µM)
